Measurements taken from ChEMBL document CHEMBL2417425, “Design and synthesis of positional isomers of 5 and 6-bromo-1-[(phenyl)sulfonyl]-2-[(4-nitrophenoxy)methyl]-1H-benzimidazoles as possible antimicrobial and antitubercular agents” (2013).
≈ marks a conversion by molar mass, not a printed value.

What was measured:
Type in all cases: functional
Candida albicans = test: Antifungal activity against Candida albicans assessed as growth inhibition by serial dilution method
Rhizopus = test: Antifungal activity against Rhizopus sp. assessed as growth inhibition by serial dilution method
[1] = test system: Mycobacterium tuberculosis; test: Antimycobacterial activity against Mycobacterium tuberculosis H37Rv assessed as growth inhibition at 1 to 100 ug/mL by resazurin assay; settings: for MIC: Mycobacterium tuberculosis, H37Rv
Staphylococcus aureus = test: Antibacterial activity against Staphylococcus aureus assessed as growth inhibition by serial dilution method
Escherichia coli = test: Antibacterial activity against Escherichia coli assessed as growth inhibition by serial dilution method
Klebsiella pneumoniae [2] = test: Antibacterial activity against Klebsiella pneumoniae assessed as growth inhibition by serial dilution method
Aspergillus flavus = test: Antifungal activity against Aspergillus flavus assessed as growth inhibition by serial dilution method
[3] = test system: Mycolicibacterium smegmatis; test: Antimycobacterial activity against Mycobacterium smegmatis ATCC 19420 assessed as growth inhibition at 1 to 100 ug/mL by resazurin assay
[4] = test system: Mycolicibacterium fortuitum; test: Antimycobacterial activity against Mycobacterium fortuitum ATCC 19542 assessed as growth inhibition at 1 to 100 ug/mL by resazurin assay
[5] = test system: Mycobacterium tuberculosis; test: Antimycobacterial activity against Mycobacterium tuberculosis H37Rv assessed as growth inhibition at 0.3125 to 5 ug/mL by resazurin assay
[6] = test system: Mycolicibacterium fortuitum; test: Antimycobacterial activity against Mycobacterium fortuitum ATCC 19542 assessed as growth inhibition at 0.3125 to 5 ug/mL by resazurin assay
[7] = test system: Mycolicibacterium smegmatis; test: Antimycobacterial activity against Mycobacterium smegmatis ATCC 19420 assessed as growth inhibition at 0.3125 to 5 ug/mL by resazurin assay
Klebsiella pneumoniae [8] = test: Potency index, ratio of ciprofloxacin MIC to compound MIC for Klebsiella pneumoniae

SMILES | MIC (Candida albicans) [µg/mL] | MIC (Rhizopus) [µg/mL] | growth inhibition (GI) [1] [%] | MIC [1] [µg/mL] | MIC (Staphylococcus aureus) [µg/mL] | MIC (Escherichia coli) [µg/mL] | MIC (Klebsiella pneumoniae [2]) [µg/mL] | MIC (Aspergillus flavus) [µg/mL] | MIC [3] [µg/mL] | MIC [4] [µg/mL] | MIC [5] [µg/mL] | MIC [6] [µg/mL] | MIC [7] [µg/mL] | PI (Klebsiella pneumoniae [8])
N#Cc1cccc(S(=O)(=O)n2c(COc3ccc([N+](=O)[O-])cc3)nc3cc(Br)ccc32)c1 | 64 (≈ 125 µM) | 128 (≈ 249 µM) | <90 | > 100 | 128 (≈ 249 µM) | 64 (≈ 125 µM) | 128 (≈ 249 µM) | 128 (≈ 249 µM) | 10 (≈ 19.5 µM) | > 100 | 5 (≈ 9.74 µM) |  |  | 
Cc1c(F)cccc1S(=O)(=O)n1c(COc2ccc([N+](=O)[O-])cc2)nc2cc(Br)ccc21 | 128 (≈ 246 µM) | 256 (≈ 492 µM) | <90 | > 100 | 64 (≈ 123 µM) | > 256 | 128 (≈ 246 µM) | 256 (≈ 492 µM) | > 100 | 10 (≈ 19.2 µM) | 10 (≈ 19.2 µM) | 10 (≈ 19.2 µM) | 10 (≈ 19.2 µM) | 
O=[N+]([O-])c1ccc(OCc2nc3cc(Br)ccc3n2S(=O)(=O)c2ccccc2Cl)cc1 | 8 (≈ 15.3 µM) | 16 (≈ 30.6 µM) | 90 | 1 (≈ 1.91 µM) | 16 (≈ 30.6 µM) | 4 (≈ 7.65 µM) | 8 (≈ 15.3 µM) | 32 (≈ 61.2 µM) | 1 (≈ 1.91 µM) | 10 (≈ 19.1 µM) | 0.625 (≈ 1.2 µM) | 10 (≈ 19.1 µM) | 1.25 (≈ 2.39 µM) | 1
COc1ccc(S(=O)(=O)n2c(COc3ccc([N+](=O)[O-])cc3)nc3cc(Br)ccc32)c(OC)c1 | 128 (≈ 233 µM) | 256 (≈ 467 µM) | 90 | 1 (≈ 1.82 µM) | 64 (≈ 117 µM) | 256 (≈ 467 µM) | 128 (≈ 233 µM) | 128 (≈ 233 µM) | 1 (≈ 1.82 µM) | 10 (≈ 18.2 µM) | 1.25 (≈ 2.28 µM) | 1.25 (≈ 2.28 µM) | 1.25 (≈ 2.28 µM) | 
Cc1cccc(S(=O)(=O)n2c(COc3ccc([N+](=O)[O-])cc3)nc3cc(Br)ccc32)c1 | 64 (≈ 127 µM) | 128 (≈ 255 µM) | 90 | > 100 | 128 (≈ 255 µM) | 64 (≈ 127 µM) | > 256 | > 256 | 10 (≈ 19.9 µM) | 10 (≈ 19.9 µM) | 1.25 (≈ 2.49 µM) | 10 (≈ 19.9 µM) |  | 
COc1ccc(OC)c(S(=O)(=O)n2c(COc3ccc([N+](=O)[O-])cc3)nc3ccc(Br)cc32)c1 | > 256 | 128 (≈ 233 µM) | <90 | 10 (≈ 18.2 µM) | 256 (≈ 467 µM) | > 256 | 128 (≈ 233 µM) | 256 (≈ 467 µM) | 10 (≈ 18.2 µM) | > 100 | 5 (≈ 9.12 µM) |  | 10 (≈ 18.2 µM) | 
O=[N+]([O-])c1ccc(OCc2nc3ccc(Br)cc3n2S(=O)(=O)c2cc(F)ccc2F)cc1 | 128 (≈ 244 µM) | 256 (≈ 488 µM) | <90 | 10 (≈ 19.1 µM) | 128 (≈ 244 µM) | 64 (≈ 122 µM) | > 256 | 64 (≈ 122 µM) | 10 (≈ 19.1 µM) | 10 (≈ 19.1 µM) | 2.5 (≈ 4.77 µM) | 10 (≈ 19.1 µM) | 10 (≈ 19.1 µM) | 
O=[N+]([O-])c1ccc(OCc2nc3ccc(Br)cc3n2S(=O)(=O)c2ccc(Cl)cc2Cl)cc1 | > 256 | > 256 | 0 | > 100 | 64 (≈ 115 µM) | > 256 | 256 (≈ 459 µM) | 128 (≈ 230 µM) | > 100 | > 100 |  |  |  | 
O=[N+]([O-])c1ccc(OCc2nc3ccc(Br)cc3n2S(=O)(=O)c2cc(Cl)ccc2Cl)cc1 | > 256 | 128 (≈ 230 µM) | 90 | 10 (≈ 17.9 µM) | 64 (≈ 115 µM) | 128 (≈ 230 µM) | 128 (≈ 230 µM) | 256 (≈ 459 µM) | > 100 | 10 (≈ 17.9 µM) | 10 (≈ 17.9 µM) | 10 (≈ 17.9 µM) |  | 
O=[N+]([O-])c1ccc(OCc2nc3ccc(Br)cc3n2S(=O)(=O)c2ccccc2[N+](=O)[O-])cc1 | > 256 | 256 (≈ 480 µM) | 90 | 1 (≈ 1.88 µM) | > 256 | 128 (≈ 240 µM) | 256 (≈ 480 µM) | > 256 | 1 (≈ 1.88 µM) | 10 (≈ 18.8 µM) | 1.25 (≈ 2.34 µM) | 1.25 (≈ 2.34 µM) | 1.25 (≈ 2.34 µM) | 
N#Cc1cccc(S(=O)(=O)n2c(COc3ccc([N+](=O)[O-])cc3)nc3ccc(Br)cc32)c1 | 128 (≈ 249 µM) | 128 (≈ 249 µM) | <90 | > 100 | 256 (≈ 499 µM) | > 256 | 256 (≈ 499 µM) | > 256 | 10 (≈ 19.5 µM) | > 100 | 5 (≈ 9.74 µM) |  |  | 
Cc1c(F)cccc1S(=O)(=O)n1c(COc2ccc([N+](=O)[O-])cc2)nc2ccc(Br)cc21 | 256 (≈ 492 µM) | 256 (≈ 492 µM) | <90 | 10 (≈ 19.2 µM) | > 256 | 256 (≈ 492 µM) | > 256 | > 256 | > 100 | > 100 | 1.25 (≈ 2.4 µM) |  |  | 
